≈ marks a conversion by molar mass, not a printed value. Calls of active or inactive are those of the source. The calls are words filed in the database; no cut-off is given here.
Key:
Format in all cases: functional
Echinoidea = assay: Inhibition of mitosis in sea urchin egg at 1 uM
P388 = assay: In vivo antitumor activity against mouse P388 cells at 8 mg/kg
KB = assay: Cytotoxicity against human KB cells; details: read-out: ED50 (the source's name)

Structure (SMILES): COc1cc2c(c3oc4c(O)cccc4c(=O)c13)C[C@H]([C@@]1(C)CO1)O2 [PSOROSPERMIN]
- Activity (Echinoidea): Active
- T/C (P388): 158%
- EC50 (KB): 0.1 µg/mL (≈ 0.294 µM)

Source: ChEMBL document CHEMBL1151342, “Psorospermin, a new antileukemic xanthone from Psorospermum febrifugum” (1980)
